Measurements reported in US20090203523A1, “Fungicidal Mixtures Made From 1-Methylpyrazol-4-Ylcarboxanilides” (BASF AKTIENGESSELLSCHFT, priority 2005, published 2009).

Key:
Puccinia recondita [1] = experiment: Curative activity against brown rust of wheat; format: in vivo; conditions: wheat seedlings, efficacy in % of untreated control, 7 days
Puccinia recondita [2] = experiment: Protective activity against brown rust of wheat; format: in vivo; conditions: wheat seedlings, efficacy in % of untreated control
Botrytis cinerea = experiment: Activity against gray mold on bell pepper leaves, 1 day protective use; format: in vivo; conditions: 16 mg/l; bell pepper seedlings, efficacy in % of untreated control, evaluated after 5 days
Pyrenophora teres = experiment: Activity against net blotch of barley, 1 day protective application; format: in vivo; conditions: barley seedlings, efficacy in % of untreated control, evaluated after 6 days
Phytophthora infestans = format: cell-based; conditions: 0.25 mg/l; microtiter plate, absorption at 405 nm on day 7

With Cn1cc(C(=O)Nc2ccccc2-c2ccc(C(F)(F)F)cc2)c(C(F)F)n1 [No. I.2, N-(4′-trifluoromethylbiphenyl-2-yl)-3-difluoromethyl-1-methyl-1H-pyrazole-4-carboxamide] the “Observed activity (efficacy, % of untreated control)” value (Puccinia recondita [1]; 0.25 mg/l) was 0%, the “Observed activity (efficacy, % of untreated control)” value (Puccinia recondita [1]; 1 mg/l) was 56% and the melting point was 164 to 165 °C. For the same compound, the “Observed efficacy (% of untreated control)” value (Puccinia recondita [2]; 16 mg/l) was 0% and the “Observed efficacy (% of untreated control)” value (Botrytis cinerea) was 70%.

For COc1cc(C)c(C(=O)c2c(OC)ccc(Br)c2C)c(OC)c1OC [metrafenone, 3′-bromo-2,3,4,6′-tetramethoxy-2′,6-dimethylbenzophenone], the “Observed efficacy (% of untreated control)” value (Puccinia recondita [2]; 63 mg/l) was 0% and the Observed activity (Pyrenophora teres; 4 mg/l) was 0%.

Work on Cc1nn(C)c(Cl)c1C(=O)Nc1ccccc1-c1ccc(C(F)(F)F)cc1 [No. I.5, N-(4′-trifluoromethylbiphenyl-2-yl)-1,3-dimethyl-5-chloro-1H-pyrazole-4-carboxamide] yielded a melting point of 173 to 175 °C.

For Cn1nc(Cl)c(C(=O)Nc2ccccc2-c2ccc(C(F)(F)F)cc2)c1C(F)F [No. I.8, N-(4′-trifluoromethylbiphenyl-2-yl)-1-methyl-3-chlorodifluoromethyl-1H-pyrazole-4-carboxamide], the melting point was 193 to 196 °C.

In the case of Fc1ccc([C@]2(Cn3cncn3)O[C@H]2c2ccccc2Cl)cc1 (racemic) [epoxiconazole, (2RS,3SR)-1-[3-(2-chlorophenyl)-2,3-epoxy-2-(4-fluorophenyl)propyl]-1H-1,2,4-triazole, reference compound], the “Observed activity (efficacy, % of untreated control)” value (Puccinia recondita [1]; 0.063 mg/l) is reported as 0%.

In the case of N#Cc1c(Cl)c(Cl)c(Cl)c(C#N)c1Cl [chlorthalonil, 2,4,5,6-tetrachloroisophthalonitrile, reference compound], the “Observed activity (efficacy, % of untreated control)” value (Puccinia recondita [1]; 16 mg/l) is reported as 0% and the Observed activity (Pyrenophora teres; 16 mg/l) is reported as 0%.

Cn1cc(C(=O)Nc2ccccc2-c2ccc(C(F)(F)F)cc2)c(CF)n1 [No. I.7, N-(4′-trifluoromethylbiphenyl-2-yl)-1-methyl-3-fluoromethyl-1H-pyrazole-4-carboxamide] gave a melting point of 156 to 158 °C.

Work on “zinc ammoniate ethylenebis(dithiocarbamate) [metiram]” yielded an Observed activity (Pyrenophora teres; 16 mg/l) of 0%.

With Cn1cc(C(=O)Nc2ccccc2-c2ccc(C(F)(F)F)cc2)c(C(F)(F)F)n1 [No. I.1, N-(4′-trifluoromethylbiphenyl-2-yl)-1-methyl-3-trifluoromethyl-1H-pyrazole-4-carboxamide] the “Observed activity (% infection)” value (Phytophthora infestans) was 3%, the melting point was 175 to 177 °C and the Observed activity (Pyrenophora teres; 0.25 mg/l) was 11%. The Observed activity (Pyrenophora teres; 1 mg/l) was 56%.

Cc1nn(C)cc1C(=O)Nc1ccccc1-c1ccc(C(F)(F)F)cc1 [No. I.6, N-(4′-trifluoromethylbiphenyl-2-yl)-1,3-dimethyl-1H-pyrazole-4-carboxamide] showed a melting point of 174 to 177 °C.

With COc1ccc(C(=CC(=O)N2CCOCC2)c2ccc(Cl)cc2)cc1OC [dimethomorph, 3-(4-chlorophenyl)-3-(3,4-dimethoxyphenyl)-1-morpholin-4-yl-propenone] the “Observed efficacy (% of untreated control)” value (Puccinia recondita [2]; 63 mg/l) was 0% and the Observed activity (Pyrenophora teres; 16 mg/l) was 0%.

In the case of CC1(C)CC/C(=C\c2ccc(Cl)cc2)C1(O)Cn1cncn1 (stereo not shown) [triticonazole, (5E)-5-[(4-chlorophenyl)methylene]-2,2-dimethyl-1-(1H-1,2,4-triazol-1-ylmethyl)cyclopentanol, reference compound], the “Observed activity (% infection)” value (Phytophthora infestans) is reported as 0%.

Cn1nc(C(F)(F)F)c(C(=O)Nc2ccccc2-c2ccc(C(F)(F)F)cc2)c1F [No. I.3, N-(4′-trifluoromethylbiphenyl-2-yl)-1-methyl-3-trifluoromethyl-5-fluoro-1H-pyrazole-4-carboxamide] gave a melting point of 170 to 173 °C.

For COC(=O)N(OC)c1ccccc1COc1ccn(-c2ccc(Cl)cc2)n1 [pyraclostrobin, methyl N-{2-[1-(4-chlorophenyl)-1H-pyrazol-3-yloxymethyl]phenyl}(N-methoxy)carbamate, reference compound], the “Observed efficacy (% of untreated control)” value (Botrytis cinerea) was 10%.

CC1CCN(c2c(-c3c(F)cc(F)cc3F)c(Cl)nc3ncnn23)CC1 [5-chloro-7-(4-methylpiperidin-1-yl)-6-(2,4,6-trifluorophenyl)-[1,2,4]triazolo[1,5-a]pyrimidine] gave an Observed activity (Pyrenophora teres; 1 mg/l) of 44%.
